What is called inhibition is the share of the control response that was lost under treatment. One may read the IC50 as the midpoint of a concentration-inhibition curve.

The values that follow come from ChEMBL document CHEMBL4433199, “First-in-class allosteric inhibitors of bacterial IMPDHs” (Eur J Med Chem, 2019).

Activity calls are given as the source filed them. The calls are words filed in the database; no cut-off is given here.

Data set [1] concerns the target T1, Inosine-5'-monophosphate dehydrogenase (Pseudomonas aeruginosa (strain ATCC 15692 / DSM 22644 / CIP 104116 / JCM14847 / LMG 12228 / 1C / PRS 101 / PAO1)) (UniProt Q9HXM5).
T1 sequence (whole entry): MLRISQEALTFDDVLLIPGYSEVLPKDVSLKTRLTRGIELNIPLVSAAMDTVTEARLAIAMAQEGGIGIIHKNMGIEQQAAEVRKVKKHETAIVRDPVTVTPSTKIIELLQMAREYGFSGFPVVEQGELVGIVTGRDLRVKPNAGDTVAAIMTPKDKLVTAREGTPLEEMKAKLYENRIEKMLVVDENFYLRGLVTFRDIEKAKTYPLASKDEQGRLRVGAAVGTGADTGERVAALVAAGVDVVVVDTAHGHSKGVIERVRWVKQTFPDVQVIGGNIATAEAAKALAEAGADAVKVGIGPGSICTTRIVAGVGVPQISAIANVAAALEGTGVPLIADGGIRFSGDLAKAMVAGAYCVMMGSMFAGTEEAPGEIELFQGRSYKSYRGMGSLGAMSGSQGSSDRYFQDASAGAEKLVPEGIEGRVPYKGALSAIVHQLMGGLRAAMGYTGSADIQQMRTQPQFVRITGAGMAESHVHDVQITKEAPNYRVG
Put plainly: Inhibition of Pseudomonas aeruginosa IMPDH at 57.4 uM using IMP as substrate in the presence of NAD+ incubated for 70 secs relative to control.

The target of data set [2] is T2, Inosine-5'-monophosphate dehydrogenase (Pseudomonas aeruginosa (strain ATCC 15692 / DSM 22644 / CIP 104116 / JCM14847 / LMG 12228 / 1C / PRS 101 / PAO1), UniProt Q9HXM5).
T2 sequence (Q9HXM5 whole entry): T1 sequence (whole entry)
Put plainly: Inhibition of Pseudomonas aeruginosa IMPDH using IMP as substrate in the presence of NAD+ incubated for 70 secs.

Data set [3] addresses T1, Inosine-5'-monophosphate dehydrogenase (Pseudomonas aeruginosa (strain ATCC 15692 / DSM 22644 / CIP 104116 / JCM14847 / LMG 12228 / 1C / PRS 101 / PAO1)). Put plainly: Competitive inhibition of Pseudomonas aeruginosa IMPDH using IMP as substrate and NAD+ in presence of varying ATP incubated for 70 secs.
For data set [4] the target is unchanged. Put plainly: Inhibition of Pseudomonas aeruginosa IMPDH at 37.1 uM using IMP as substrate in the presence of NAD+ incubated for 70 secs relative to control.
For data set [5] the target is unchanged. Put plainly: Inhibition of Pseudomonas aeruginosa IMPDH assessed as Km for IMP at 10 uM using IMP as substrate in presence of 2 mM NAD+ and 0.2 mM MgATP (reference value: 483 +/- 65 microM).
Data set [6] shares this target. Put plainly: Inhibition of Pseudomonas aeruginosa IMPDH at 54.6 uM using IMP as substrate in the presence of NAD+ incubated for 70 secs relative to control.
Data set [7] has the same target. Put plainly: Inhibition of Pseudomonas aeruginosa IMPDH at 43.1 uM using IMP as substrate in the presence of NAD+ incubated for 70 secs relative to control.
For data set [8] the target is unchanged. Put plainly: Inhibition of Pseudomonas aeruginosa IMPDH at 44.7 uM using IMP as substrate in the presence of NAD+ incubated for 70 secs relative to control.
Data set [9] has the same target. Put plainly: Inhibition of Pseudomonas aeruginosa IMPDH at 41.5 uM using IMP as substrate in the presence of NAD+ incubated for 70 secs relative to control.
The target is the same in data set [10]. Put plainly: Inhibition of Pseudomonas aeruginosa IMPDH at 18.2 uM using IMP as substrate in the presence of NAD+ incubated for 70 secs relative to control.
The target is the same in data set [11]. Put plainly: Inhibition of Pseudomonas aeruginosa IMPDH at 55.9 uM using IMP as substrate in the presence of NAD+ incubated for 70 secs relative to control.
Data set [12] has the same target. Put plainly: Inhibition of Pseudomonas aeruginosa IMPDH at 55.6 uM using IMP as substrate in the presence of NAD+ incubated for 70 secs relative to control.
The target is the same in data set [13]. Put plainly: Inhibition of Pseudomonas aeruginosa IMPDH at 47.1 uM using IMP as substrate in the presence of NAD+ incubated for 70 secs relative to control.
Compound in data set [14]: CC(=O)Nc1ccc(C2C3=C(Nc4c2c(=O)[nH]c(=O)n4Cc2ccccc2)c2ccccc2C3=O)cc1
Put plainly: (§1) Inhibition of Pseudomonas aeruginosa IMPDH assessed as Vmax for IMP at 10 uM using IMP as substrate in presence of 2 mM NAD+ and 0.2 mM MgATP (reference value: 3.74 +/- 0.22 U/mg).

Compound in data set [15]: N#CC1=C(N)Oc2[nH]c(=O)[nH]c(=O)c2C1c1ccc([N+](=O)[O-])cc1
The description is as §1.

Compound in data set [16]: CC(=O)N1CCOc2cc(S(=O)(=O)Nc3ccc(F)c(Cl)c3)ccc21
Put plainly: (§2) Inhibition of Pseudomonas aeruginosa IMPDH assessed as Vmax for IMP at 20 uM using IMP as substrate in presence of 2 mM NAD+ and 0.2 mM MgATP (reference value: 3.74 +/- 0.22 U/mg).

Compound in data set [17]: CCOc1ccc(-c2cc(C(=O)O)nc3[nH]nc(-c4ccc(Cl)cc4)c23)cc1
The data set is described as §2.

As to `N#CC1=C(N)Oc2[nH]c(=O)[nH]c(=O)c2C1c1ccc(Cl)cc1` (centres undefined), in [1], the inhibition stood at 89.3%. The IC50 in data set [2] (read-out: IC50) stood at 4 µM. In [3], the inhibition result was “Active”.
Take `CC(=O)Nc1ccc(C2C3=C(Nc4c2c(=O)[nH]c(=O)n4Cc2ccccc2)c2ccccc2C3=O)cc1` (centres undefined): the inhibition in [4] amounted to 93.8%. For the same molecule, in data set [2] (read-out: IC50), the IC50 came out at 2.8 µM. Moreover, the inhibition entry in [3] is “Active”. Besides, in data set [5], the K0.5 was found to be 1310 µM.
`N#CC1=C(N)Oc2[nH]c(=O)[nH]c(=O)c2C1c1ccc([N+](=O)[O-])s1` (centres undefined): the inhibition in data set [6] turned out to be 85.7%. The IC50 in data set [2] (read-out: IC50) was 4 µM. In data set [3], the inhibition entry is “Active”.
With `CN(Cc1ccccc1)Cc1nc2c(c(=O)n(C)c(=O)n2C)n1Cc1ccccc1F`, in data set [7], the inhibition turned out to be 93.3%. In addition, in [2], the concentration for half-maximal inhibition (IC50) result is “Not Active”.
As to `CC(=O)Nc1ccc(-c2cc(C(=O)O)nc3[nH]nc(-c4ccc(Cl)cc4)c23)cc1`, the inhibition in data set [8] turned out to be 73.2%. For the same molecule, the IC50 in [2] (read-out: IC50) turned out to be 19 µM. Besides, the inhibition result in data set [3] was “Active”.
With `COc1ccc(Br)cc1-c1cc(C(=O)O)nc2[nH]nc(-c3ccc(C)cc3)c12`, in data set [2] (read-out: IC50), the IC50 turned out to be 11.7 µM. For the same molecule, the inhibition entry in data set [3] is “Active”. In data set [9], the inhibition worked out at 79.9%.
On to `COc1cc(-c2ccc(/N=N/c3ccc4c(S(=O)(=O)O)cc(S(=O)(=O)O)c(N)c4c3O)c(OC)c2)ccc1/N=N/c1ccc2c(S(=O)(=O)O)cc(S(=O)(=O)O)c(N)c2c1O` [CHICAGO SKY BLUE SODIUM], for which the inhibition in data set [10] amounted to 92.2%. Moreover, the IC50 in data set [2] (read-out: IC50) came to 1.6 µM. Besides, in data set [3], the inhibition result was “Active”.
As for `COc1cccc(CNC(=O)Cn2ncc3ccccc32)c1OC`, the inhibition in data set [11] was determined as 95.2%. Also, the IC50 entry in data set [2] was “Not Active”.
For the molecule `N#CC1=C(N)Oc2[nH]c(=O)[nH]c(=O)c2C1c1ccc([N+](=O)[O-])cc1` (centres undefined), in data set [12], the inhibition turned out to be 87.8%. In addition, in data set [2] (read-out: IC50), the IC50 was determined as 7 µM. Further, the inhibition result in [3] was “Active”. Moreover, the K0.5 in data set [5] turned out to be 691 µM.
`CC(=O)Nc1ccc(-c2cc(C(=O)O)nc3[nH]nc(-c4ccc(C)cc4)c23)cc1`: the inhibition in data set [13] was 78.3%. The 50% inhibitory concentration (IC50) in [2] (read-out: IC50) turned out to be 23 µM. In data set [3], the inhibition result was “Active”.

B1: Inosine-5'-monophosphate dehydrogenase (Pseudomonas aeruginosa (strain ATCC 15692 / DSM 22644 / CIP 104116 / JCM14847 / LMG 12228 / 1C / PRS 101 / PAO1)), … (protein)
chain: T1 sequence (whole entry)
For the molecule B1, the Vmax in data set [14] amounted to 3.34 U/mg; in [15] it was 3.64 U/mg; in data set [16] it was 2.81 U/mg; in data set [17], 3.14 U/mg.
